TGI and GI50 data for 14 molecules are collected here from PubChem BioAssay (NCI).

Test systems include NCI/ADR-RES ovarian; 786-0 renal; MALME-3M melanoma; A549 NSCLC; MOLT-4 leukemia; LOX IMVI melanoma; SW-620 colon; BT-549 breast.
Holding throughout (assay): growth of human tumour cells (NCI), 48 h

Molecules are shown by their SMILES. “And” between values parts separate entries of the source, which are not always exact repeats. Equal values may be shown once.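 Five compound concentrations were applied to cells in 96-well plates for 48 hours; endpoints were derived by simple linear interpolation of the resulting dose-response curve. GI50 marks 50% less growth. TGI: total growth inhibition.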

As to `CN1CCCCC1CCN1c2ccccc2Sc2ccc(S(C)=O)cc21` (stereo not drawn), the TGI in the test with NCI/ADR-RES ovarian, with 786-0 renal, in the test with MALME-3M melanoma, with A549 NSCLC, in the test with MOLT-4 leukemia and with LOX IMVI melanoma was > 100 µM throughout. Further, the TGI in the test with SW-620 colon and with BT-549 breast was > 100 µM each time.

Regarding `O=C1c2cccnc2C(=O)c2c1c(C(=O)OCCN1CCOCC1)c1ccccn21`, the GI50 in the test with NCI/ADR-RES ovarian was < 0.01 µM; in the test with 786-0 renal, 0.0108 µM; with MALME-3M melanoma, 0.0353 µM; with A549 NSCLC it was 0.0205 µM; with MOLT-4 leukemia, 0.0938 µM; in the test on LOX IMVI melanoma, < 0.01 µM. The GI50 is < 0.01 µM in the test with SW-620 colon and 0.05 µM with BT-549 breast. The TGI in the test on NCI/ADR-RES ovarian was 13 µM; with 786-0 renal, 2.22 µM; in the test on MALME-3M melanoma, 0.985 µM; in the test with A549 NSCLC, 1.17 µM; in the test with MOLT-4 leukemia, 3.22 µM; with LOX IMVI melanoma, 0.384 µM. Further, the TGI worked out at 3.23 µM in the test on SW-620 colon and 2.62 µM in the test with BT-549 breast.

Regarding `Nc1c(C(=O)Nc2ccccc2)sc2nc3c(cc12)CCCC3`, the GI50 in the test with NCI/ADR-RES ovarian was 0.683 µM; with 786-0 renal, 0.706 µM; with MALME-3M melanoma, 0.608 µM; with A549 NSCLC, 0.546 µM; in the test on MOLT-4 leukemia, 0.693 µM; with LOX IMVI melanoma, 0.908 µM. The figures for the GI50 with SW-620 colon and with BT-549 breast were 0.403 µM and 3.89 µM, respectively. Also, the TGI was > 100 µM in the test with NCI/ADR-RES ovarian; 55 µM in the test with 786-0 renal; 95.2 µM in the test with MALME-3M melanoma; 39.4 µM in the test on A549 NSCLC; > 100 µM in the test with MOLT-4 leukemia; > 100 µM in the test with LOX IMVI melanoma. Further, the TGI in the test on SW-620 colon and in the test with BT-549 breast was > 100 µM throughout.

`CC(=O)OCC1OC(n2c(-c3ccccc3)c(C)c(C)c(C#N)c2=S)C(OC(C)=O)C(OC(C)=O)C1OC(C)=O` (stereo not drawn): the TGI was > 100 µM with NCI/ADR-RES ovarian; 19.3 µM and 56.1 µM with 786-0 renal; > 100 µM in the test with MALME-3M melanoma; > 100 µM with A549 NSCLC; > 100 µM in the test with MOLT-4 leukemia; > 100 µM with LOX IMVI melanoma. In addition, the TGI with SW-620 colon is > 100 µM. The GI50 in the test on 786-0 renal was 6.84 µM and 23.2 µM; with A549 NSCLC, 25.7 µM and > 100 µM; in the test on LOX IMVI melanoma, 14.1 µM and > 100 µM; in the test with SW-620 colon, 22.9 µM and > 100 µM.

On to `O=CC1(C2(C=O)c3ccccc3-c3ccccc32)c2ccccc2-c2ccccc21`, for which the GI50 in the test with NCI/ADR-RES ovarian is 2.54 µM; in the test on 786-0 renal, 2.16 µM; in the test with MALME-3M melanoma, 2.68 µM; with MOLT-4 leukemia it was 1.38 µM; in the test on LOX IMVI melanoma, 1.89 µM; in the test with SW-620 colon, 1.8 µM. For the same molecule, the GI50 in the test with BT-549 breast was 2.01 µM. For the same molecule, the TGI in the test with NCI/ADR-RES ovarian was 6.99 µM; in the test on 786-0 renal it was 5.34 µM; with MALME-3M melanoma it was 5.94 µM; with MOLT-4 leukemia it was 3.33 µM; in the test with LOX IMVI melanoma, 3.98 µM; in the test with SW-620 colon, 3.53 µM. In addition, the TGI in the test on BT-549 breast worked out at 4.84 µM.

On to `COC(=O)C1C2CCCN2OC1(C)CO` (stereo not drawn), for which the TGI with NCI/ADR-RES ovarian, in the test on 786-0 renal, with A549 NSCLC, in the test with MOLT-4 leukemia, with LOX IMVI melanoma and with SW-620 colon was > 100 µM each time. Besides, the TGI in the test with BT-549 breast was > 100 µM.

For the molecule `CCN(CC)CC(O)C1CCC(c2ccccc2)CC1` (stereo not drawn), the TGI in the test on NCI/ADR-RES ovarian is > 100 µM; in the test with 786-0 renal it was 47.6 µM; in the test with MALME-3M melanoma, 32.3 µM; in the test on A549 NSCLC, > 100 µM; in the test on MOLT-4 leukemia it was > 100 µM; in the test on LOX IMVI melanoma, 42.1 µM. Further, the TGI in the test with SW-620 colon turned out to be 80.9 µM.

Take `O=c1cccc(C#CC#C/C=C/CO)o1`: the GI50 in the test with NCI/ADR-RES ovarian is 2.52 µM; with 786-0 renal, 3.72 µM; with A549 NSCLC it was 3.65 µM; in the test with MOLT-4 leukemia it was 9.1 µM; with LOX IMVI melanoma, 1.55 µM; in the test with SW-620 colon, 3.3 µM. For the same molecule, the GI50 with BT-549 breast is 2.1 µM. In addition, the TGI in the test on 786-0 renal was > 27.5 µM; with A549 NSCLC it was 13.1 µM; in the test with MOLT-4 leukemia, > 100 µM; in the test on LOX IMVI melanoma, 3.32 µM; in the test on SW-620 colon, > 24.9 µM; in the test on BT-549 breast, 5.17 µM.

Take `COc1ccc(-c2coc3cc(OC)cc(O)c3c2=O)cc1`: the TGI in the test with NCI/ADR-RES ovarian, in the test with 786-0 renal, in the test on MALME-3M melanoma, in the test with A549 NSCLC, with LOX IMVI melanoma and in the test with SW-620 colon was > 100 µM each time.

As to `Cn1c(=S)sc2nc3ccccc3n2c1=S`, the TGI with NCI/ADR-RES ovarian came to 44.8 µM; with 786-0 renal it was 33.6 µM; in the test on MALME-3M melanoma, 31.2 µM; in the test with A549 NSCLC, 97.5 µM; in the test on MOLT-4 leukemia, 38.7 µM; in the test on LOX IMVI melanoma, 26.2 µM. In the test on SW-620 colon, this molecule yielded a TGI of 29.2 µM.

As for `O=C1OC2C(O)C(=O)OC2C1O` (stereo not drawn), the TGI in the test on NCI/ADR-RES ovarian, in the test on 786-0 renal, in the test on MALME-3M melanoma, in the test with A549 NSCLC, in the test on MOLT-4 leukemia and in the test on LOX IMVI melanoma was > 100 µM in each case. Besides, the TGI in the test with SW-620 colon was > 100 µM.

On to `CCN(CC(COc1ccc2c(c1)[n+]([O-])nc(N)[n+]2[O-])OC(C)=O)C(C)=O` (stereo not drawn), for which the TGI in the test with NCI/ADR-RES ovarian, in the test on 786-0 renal, in the test on A549 NSCLC, with MOLT-4 leukemia, in the test with LOX IMVI melanoma and in the test with SW-620 colon was > 100 µM in each case. Moreover, the TGI in the test with BT-549 breast was > 100 µM.

`O=S(=O)(NCCCNc1cc(-c2cn(-c3ccccc3)nc2-c2cccc(O)c2)ccn1)c1ccc(Cl)cc1`: the GI50 in the test with NCI/ADR-RES ovarian is 1.94 µM; with 786-0 renal, 1.56 µM; with A549 NSCLC it was 2.64 µM; in the test with MOLT-4 leukemia, 1.26 µM; with LOX IMVI melanoma, 1.42 µM; in the test on SW-620 colon, 1.62 µM. For the same molecule, the TGI came to 5.3 µM in the test with NCI/ADR-RES ovarian; 4.19 µM in the test on 786-0 renal; 10.1 µM with A549 NSCLC; 3.69 µM in the test with MOLT-4 leukemia; 2.77 µM with LOX IMVI melanoma; 3.54 µM with SW-620 colon.

For `CC1=CC2C(C(C)C)CC1C1C(=O)OC(=O)C21` (stereo not drawn), the TGI in the test on NCI/ADR-RES ovarian, in the test with 786-0 renal, in the test on MALME-3M melanoma, in the test with A549 NSCLC, in the test with LOX IMVI melanoma and in the test on SW-620 colon was > 100 µM in each case. Further, in the test on BT-549 breast, the TGI was > 100 µM.
